From ChEMBL document CHEMBL1201862, “PubChem BioAssay data set” (2004)
Where a name gives a salt, the structure may show the parent alone.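 Briefly, cells in 96-well plates were exposed to five compound concentrations for 48 h, and endpoints were estimated by linear interpolation. Here, GI50 denotes the concentration required for 50% inhibition of growth.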 Activity calls are given as the source filed them. Cut-off read from the data, not from the text of the source: active = GI50 up to about 1.1 µM and inactive = higher.

Key:
Test in all cases: DTP human tumour cell line panel, 48 h
786-0 = tested on: 786-0
ACHN = tested on: ACHN
COLO 205 = tested on: COLO 205
HCT-15 = tested on: HCT-15
HT-29 = tested on: HT-29
IGROV-1 = tested on: IGROV-1
K562 = tested on: K562
KM12 = tested on: KM12
NCI-H23 = tested on: NCI-H23
NCI-H460 = tested on: NCI-H460
OVCAR-3 = tested on: OVCAR-3
OVCAR-8 = tested on: OVCAR-8
SF-539 = tested on: SF-539
SK-MEL-5 = tested on: SK-MEL-5
SK-OV-3 = tested on: SK-OV-3
SN12C = tested on: SN12C
SNB-19 = tested on: SNB-19
SNB-75 = tested on: SNB-75
SW-620 = tested on: SW-620
U-251 = tested on: U-251

| Structure (SMILES) | GI50 (786-0) | GI50 (ACHN) | GI50 (COLO 205) | GI50 (HCT-15) [µM] | GI50 (HT-29) | GI50 (IGROV-1) | GI50 (K562) | GI50 (KM12) | GI50 (NCI-H23) | GI50 (NCI-H460) | GI50 (OVCAR-3) | GI50 (OVCAR-8) | GI50 (SF-539) | GI50 (SK-MEL-5) | GI50 (SK-OV-3) | GI50 (SN12C) | GI50 (SNB-19) | GI50 (SNB-75) | GI50 (SW-620) | GI50 (U-251) |
| --- | --- | --- | --- | --- | --- | --- | --- | --- | --- | --- | --- | --- | --- | --- | --- | --- | --- | --- | --- | --- |
| OC1C[C@H](c2ccccc2)C2(C(O)c3ccccc3C2O)[C@@H](c2ccccc2)C1 (stereo not given in full) | > 100 µM (inactive) | > 100 µM (inactive) | > 100 µM (inactive) | > 100 | > 100 µM (inactive) | > 100 µM (inactive) | > 100 µM (inactive) | > 100 µM (inactive) | > 100 µM (inactive) | > 100 µM (inactive) | > 100 µM (inactive) | > 100 µM (inactive) | > 100 µM (inactive) | > 100 µM (inactive) | > 100 µM (inactive) | > 100 µM (inactive) | > 100 µM (inactive) | 53.7 µM (inactive) | > 100 µM (inactive) | > 100 µM (inactive) |
| COc1ccc(N2C(=O)C3ON(C(C(N)=O)c4ccccc4)C(c4cc5ccccc5c5ccccc45)C3C2=O)cc1 (stereo not given) | 32.4 µM (inactive) | > 50 µM (inactive) | 19.6 µM (inactive) | 20.4 | 18 µM (inactive) | 18.4 µM (inactive) | 22.9 µM (inactive) | 32.3 µM (inactive) | 45.7 µM (inactive) | > 50 µM (inactive) | 31.7 µM (inactive) | > 50 µM (inactive) | 16.1 µM (inactive) | 19.7 µM (inactive) | > 50 µM (inactive) | 14 µM (inactive) | > 50 µM (inactive) | 40.1 µM (inactive) | 26.9 µM (inactive) | 38.5 µM (inactive) |
| N#C/C(=C/NC(=S)NCc1ccccc1)C(N)=O | > 100 µM (inactive) | > 100 µM (inactive) | > 100 µM (inactive) | > 100 | > 100 µM (inactive) | > 100 µM (inactive) | > 100 µM (inactive) | > 100 µM (inactive) | > 100 µM (inactive) | > 100 µM (inactive) | 0.063 µM (active) | > 100 µM (inactive) | > 100 µM (inactive) | > 100 µM (inactive) | > 100 µM (inactive) | > 100 µM (inactive) | > 100 µM (inactive) | > 100 µM (inactive) | > 100 µM (inactive) | > 100 µM (inactive) |
| CS(=O)(=O)OCCN(CCOS(C)(=O)=O)c1ccc(/C=N/c2ccc(-c3csc(COc4ccccc4)n3)cc2)cc1 | 0.429 µM (active) | 0.407 µM (active) | 2.07 µM (inactive) | 8.51 | 4.31 µM (inactive) | 12.6 µM (inactive) | 5.02 µM (inactive) | 4.78 µM (inactive) | 2.21 µM (inactive) | 0.0708 µM (active) | 1.24 µM (inactive) | 6.17 µM (inactive) | 2.86 µM (inactive) | 10.7 µM (inactive) | 1.69 µM (inactive) | 5.14 µM (inactive) | 9.16 µM (inactive) | 1.9 µM (inactive) | 8.09 µM (inactive) | 7.24 µM (inactive) |
| COC(=N)c1ncn(Cc2ccccc2)c1N | > 100 µM (inactive) | > 100 µM (inactive) | > 100 µM (inactive) | > 100 | > 100 µM (inactive) | > 100 µM (inactive) | > 100 µM (inactive) | > 100 µM (inactive) | > 100 µM (inactive) | > 100 µM (inactive) | > 100 µM (inactive) | > 100 µM (inactive) | > 100 µM (inactive) | > 100 µM (inactive) | > 100 µM (inactive) | > 100 µM (inactive) | > 100 µM (inactive) | > 100 µM (inactive) | > 100 µM (inactive) | > 100 µM (inactive) |
| O=C1c2c(O)cccc2-c2nn(CCNCCO)c3ccc(NCCNCCO)c1c23 [LOSOXANTRONE HYDROCHLORIDE] | < 0.0185 µM (active) | 0.0337 µM (active) | 0.158 µM (active) | 2.36 | 0.303 µM (active) | 0.337 µM (active) | 0.238 µM (active) | 0.59 µM (active) | 0.0338 µM (active) | < 0.01 µM (active) | 0.598 µM (active) | 0.159 µM (active) | 0.0288 µM (active) | 0.0955 µM (active) | 0.0735 µM (active) | 0.0182 µM (active) | < 0.0167 µM (active) | 0.047 µM (active) | 0.116 µM (active) | 0.0122 µM (active) |
